ChEMBL document CHEMBL4251622, “Design, synthesis, and biological evaluation of polo-like kinase 1/eukaryotic elongation factor 2 kinase (PLK1/EEF2K) dual inhibitors for regulating breast cancer cells apoptosis and autophagy” (Eur J Med Chem, 2018)
The source made the active and inactive calls. The rule behind the calls is not given here.

Legend:
[1] = target: Mitogen-activated protein kinase 3 (Homo sapiens) (UniProt P27361); experiment: Inhibition of wild-type human full length ERK1 (M1 to P379 residues) expressed in bacterial expression system assessed as residual activity at 1 uM by Kinomescan method relative to control
Chain of Mitogen-activated protein kinase 3 (Homo sapiens) (P27361 whole entry, the tested form may be a part): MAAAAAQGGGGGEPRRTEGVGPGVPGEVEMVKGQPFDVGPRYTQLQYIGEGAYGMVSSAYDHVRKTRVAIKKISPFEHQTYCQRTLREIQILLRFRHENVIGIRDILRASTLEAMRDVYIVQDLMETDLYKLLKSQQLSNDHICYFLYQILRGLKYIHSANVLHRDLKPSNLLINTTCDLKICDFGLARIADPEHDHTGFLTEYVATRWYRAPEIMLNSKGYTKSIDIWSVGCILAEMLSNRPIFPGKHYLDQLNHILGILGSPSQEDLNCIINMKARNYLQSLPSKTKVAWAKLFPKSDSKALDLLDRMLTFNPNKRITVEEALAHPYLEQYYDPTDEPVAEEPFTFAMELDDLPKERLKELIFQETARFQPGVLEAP

[2] = target: Receptor-interacting serine/threonine-protein kinase 1 (Homo sapiens) (UniProt Q13546); experiment: Inhibition of wild-type human partial length RIPK1 (M1 to K305 residues) expressed in bacterial expression system assessed as residual activity at 1 uM by Kinomescan method relative to control
BT-483 [3] = experiment: Effect on total PLK1 protein expression in human BT-483 cells at 5 to 10 uM by Western blot analysis; assay type: ADME, cell-based; conditions: bt-483, 10 µM
[4] = target: Death-associated protein kinase 1 (Homo sapiens) (UniProt P53355); experiment: Inhibition of wild-type human partial length DAPK1 (M1 to F296 residues) expressed in bacterial expression system assessed as residual activity at 1 uM by Kinomescan method relative to control
[5] = target: RAC-alpha serine/threonine-protein kinase (Homo sapiens) (UniProt P31749); experiment: Inhibition of wild-type human partial length AKT1 expressed in bacterial expression system assessed as residual activity at 1 uM by Kinomescan method relative to control
Chain of RAC-alpha serine/threonine-protein kinase (Homo sapiens) (P31749 whole entry): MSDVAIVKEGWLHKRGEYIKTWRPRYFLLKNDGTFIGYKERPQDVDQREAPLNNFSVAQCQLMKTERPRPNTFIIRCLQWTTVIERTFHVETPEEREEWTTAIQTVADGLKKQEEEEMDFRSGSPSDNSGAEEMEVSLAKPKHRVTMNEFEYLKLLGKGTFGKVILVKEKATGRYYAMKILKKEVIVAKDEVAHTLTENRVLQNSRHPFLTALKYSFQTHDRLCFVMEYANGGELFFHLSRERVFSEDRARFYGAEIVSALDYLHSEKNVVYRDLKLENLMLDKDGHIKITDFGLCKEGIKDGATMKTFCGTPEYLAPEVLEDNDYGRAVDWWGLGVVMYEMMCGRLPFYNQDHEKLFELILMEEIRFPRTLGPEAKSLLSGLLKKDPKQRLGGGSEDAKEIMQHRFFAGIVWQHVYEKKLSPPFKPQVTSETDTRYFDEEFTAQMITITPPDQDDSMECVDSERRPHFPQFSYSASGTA

BT-483 [6] = experiment: Induction of apoptosis in human BT-483 cells by Annexin V-FITC/propidium iodide staining based flow cytometry; assay type: functional, cell-based
[7] = target: Mitogen-activated protein kinase 6 (Homo sapiens) (UniProt Q16659); experiment: Inhibition of wild-type human partial length ERK3 (M1 to P413 residues) expressed in bacterial expression system assessed as residual activity at 1 uM by Kinomescan method relative to control
Chain of Mitogen-activated protein kinase 6 (Homo sapiens) (Q16659 whole entry, the tested form may be a part): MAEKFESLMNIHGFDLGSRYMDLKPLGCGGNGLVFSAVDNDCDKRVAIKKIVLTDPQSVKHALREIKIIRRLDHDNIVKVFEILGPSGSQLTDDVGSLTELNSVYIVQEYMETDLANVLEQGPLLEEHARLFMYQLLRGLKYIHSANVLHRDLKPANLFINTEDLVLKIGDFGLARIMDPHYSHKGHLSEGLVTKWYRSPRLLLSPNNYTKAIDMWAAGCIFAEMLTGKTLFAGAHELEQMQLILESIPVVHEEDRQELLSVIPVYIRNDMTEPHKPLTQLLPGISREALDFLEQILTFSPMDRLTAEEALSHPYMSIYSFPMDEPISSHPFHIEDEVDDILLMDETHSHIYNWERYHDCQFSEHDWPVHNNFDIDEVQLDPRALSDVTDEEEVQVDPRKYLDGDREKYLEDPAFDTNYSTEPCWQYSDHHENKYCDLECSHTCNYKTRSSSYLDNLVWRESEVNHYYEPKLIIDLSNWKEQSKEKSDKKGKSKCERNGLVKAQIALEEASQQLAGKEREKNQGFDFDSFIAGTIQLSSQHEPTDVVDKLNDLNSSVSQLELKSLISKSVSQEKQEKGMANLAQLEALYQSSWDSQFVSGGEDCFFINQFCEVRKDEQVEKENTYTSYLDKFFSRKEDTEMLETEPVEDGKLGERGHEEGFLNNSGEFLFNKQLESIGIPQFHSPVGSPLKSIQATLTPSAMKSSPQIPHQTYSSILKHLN

BT-483 [8] = experiment: Effect on FADD protein expression in human BT-483 cells at 5 to 10 uM by Western blot analysis; assay type: functional, cell-based
[9] = target: Serine/threonine-protein kinase TNNI3K (Homo sapiens) (UniProt Q59H18); experiment: Inhibition of wild-type human full length TNNI3K (M1 to S835 residues) expressed in bacterial expression system assessed as residual activity at 1 uM by Kinomescan method relative to control
Chain of Serine/threonine-protein kinase TNNI3K (Homo sapiens) (Q59H18 whole entry, the tested form may be a part): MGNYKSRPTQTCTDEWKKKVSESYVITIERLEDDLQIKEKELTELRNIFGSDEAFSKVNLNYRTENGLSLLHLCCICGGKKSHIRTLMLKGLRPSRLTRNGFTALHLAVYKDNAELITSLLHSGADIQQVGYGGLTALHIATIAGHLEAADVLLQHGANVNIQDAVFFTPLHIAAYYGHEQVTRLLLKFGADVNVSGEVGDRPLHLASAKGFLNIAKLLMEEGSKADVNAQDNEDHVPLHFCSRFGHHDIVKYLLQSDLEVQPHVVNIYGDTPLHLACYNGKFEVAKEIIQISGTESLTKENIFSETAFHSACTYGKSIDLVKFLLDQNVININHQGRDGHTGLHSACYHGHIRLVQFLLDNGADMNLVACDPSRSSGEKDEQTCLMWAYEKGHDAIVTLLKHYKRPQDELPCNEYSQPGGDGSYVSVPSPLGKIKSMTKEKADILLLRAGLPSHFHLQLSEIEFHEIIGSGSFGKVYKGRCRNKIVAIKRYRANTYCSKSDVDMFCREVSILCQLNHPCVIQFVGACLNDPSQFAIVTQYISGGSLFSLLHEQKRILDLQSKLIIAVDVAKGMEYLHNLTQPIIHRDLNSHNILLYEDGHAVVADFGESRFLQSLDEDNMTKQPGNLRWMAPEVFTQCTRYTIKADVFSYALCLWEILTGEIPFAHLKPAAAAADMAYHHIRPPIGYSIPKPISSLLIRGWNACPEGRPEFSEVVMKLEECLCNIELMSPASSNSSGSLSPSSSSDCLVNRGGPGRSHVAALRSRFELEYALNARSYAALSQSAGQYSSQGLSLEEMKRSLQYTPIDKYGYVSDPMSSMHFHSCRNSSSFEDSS

[10] = target: T1, Eukaryotic elongation factor 2 kinase (Homo sapiens) (UniProt O00418); experiment: Inhibition of GST-tagged EEF2K (unknown origin) at 20 uM using biotinylated EEF2 peptide substrate by HTRF assay relative to control
T1 sequence (whole entry): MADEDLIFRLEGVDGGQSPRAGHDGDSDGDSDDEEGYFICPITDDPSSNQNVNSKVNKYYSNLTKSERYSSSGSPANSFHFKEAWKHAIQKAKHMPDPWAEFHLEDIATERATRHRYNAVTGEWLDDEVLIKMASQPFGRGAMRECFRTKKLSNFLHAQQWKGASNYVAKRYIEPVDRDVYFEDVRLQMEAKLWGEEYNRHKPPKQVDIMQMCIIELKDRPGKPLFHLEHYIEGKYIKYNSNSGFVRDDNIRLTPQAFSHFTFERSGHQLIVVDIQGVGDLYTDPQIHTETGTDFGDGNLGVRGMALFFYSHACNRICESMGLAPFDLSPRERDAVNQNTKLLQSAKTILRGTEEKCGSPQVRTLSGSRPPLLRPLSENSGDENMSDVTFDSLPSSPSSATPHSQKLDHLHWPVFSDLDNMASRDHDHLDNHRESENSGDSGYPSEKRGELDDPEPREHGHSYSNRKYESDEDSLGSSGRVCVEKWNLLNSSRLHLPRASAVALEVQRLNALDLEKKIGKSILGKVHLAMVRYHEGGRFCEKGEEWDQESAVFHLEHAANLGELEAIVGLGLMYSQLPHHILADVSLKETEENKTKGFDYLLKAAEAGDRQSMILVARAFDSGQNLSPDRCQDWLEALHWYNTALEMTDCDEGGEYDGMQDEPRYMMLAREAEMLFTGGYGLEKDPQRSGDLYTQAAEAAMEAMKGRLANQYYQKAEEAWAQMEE

[11] = target: Fibroblast growth factor receptor 4 (Homo sapiens) (UniProt P22455); experiment: Inhibition of wild-type human partial length FGFR4 (G402 to E713 residues) expressed in bacterial expression system assessed as residual activity at 1 uM by Kinomescan method relative to control
[12] = target: Cyclin-dependent kinase 19 (Homo sapiens) (UniProt Q9BWU1); experiment: Inhibition of wild-type human partial length CDK11 (M1 to N360 residues) expressed in bacterial expression system assessed as residual activity at 1 uM by Kinomescan method relative to control
Chain of Cyclin-dependent kinase 19 (Homo sapiens) (Q9BWU1 whole entry, the tested form may be a part): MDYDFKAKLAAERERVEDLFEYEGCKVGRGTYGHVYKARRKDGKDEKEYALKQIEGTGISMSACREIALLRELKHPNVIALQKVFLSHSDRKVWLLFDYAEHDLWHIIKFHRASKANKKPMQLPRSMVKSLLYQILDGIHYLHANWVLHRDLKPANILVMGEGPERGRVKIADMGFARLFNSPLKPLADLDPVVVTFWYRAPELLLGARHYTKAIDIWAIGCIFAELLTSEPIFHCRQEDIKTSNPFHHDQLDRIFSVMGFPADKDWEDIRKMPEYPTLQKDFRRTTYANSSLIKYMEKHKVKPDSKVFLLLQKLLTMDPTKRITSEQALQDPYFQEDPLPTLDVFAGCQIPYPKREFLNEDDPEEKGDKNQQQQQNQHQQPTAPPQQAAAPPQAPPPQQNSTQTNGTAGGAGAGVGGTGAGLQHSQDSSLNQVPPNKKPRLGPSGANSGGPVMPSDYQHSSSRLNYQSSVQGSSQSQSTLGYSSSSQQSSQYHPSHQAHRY

ZR-75-1 = experiment: Cytotoxicity against human ZR-75-1 cells after 24 hrs by MTT assay; assay type: functional, cell-based
BT-483 [13] = experiment: Upregulation of Bad protein expression in human BT-483 cells at 5 to 10 uM by Western blot analysis; assay type: functional, cell-based
BT-483 [14] = experiment: Effect on total EEF2 protein expression in human BT-483 cells at 5 to 10 uM by Western blot analysis; assay type: ADME, cell-based; conditions: bt-483, 10 µM
[15] = target: Cyclin-dependent kinase 7 (Homo sapiens) (UniProt P50613); experiment: Inhibition of wild-type human full length CDK7 (M1 to L344 residues) expressed in mammalian expression system assessed as residual activity at 1 uM by Kinomescan method relative to control
Chain of Cyclin-dependent kinase 7 (Homo sapiens) (P50613 whole entry, the tested form may be a part): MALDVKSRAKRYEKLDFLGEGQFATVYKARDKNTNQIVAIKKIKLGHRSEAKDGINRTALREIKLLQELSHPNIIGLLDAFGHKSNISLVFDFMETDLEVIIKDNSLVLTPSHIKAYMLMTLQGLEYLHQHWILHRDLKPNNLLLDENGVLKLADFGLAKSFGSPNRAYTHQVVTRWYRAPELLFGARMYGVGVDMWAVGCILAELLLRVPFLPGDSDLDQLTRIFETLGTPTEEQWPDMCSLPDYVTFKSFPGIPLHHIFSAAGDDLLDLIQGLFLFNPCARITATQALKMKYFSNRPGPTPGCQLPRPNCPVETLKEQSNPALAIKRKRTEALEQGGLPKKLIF

BT-483 [16] = experiment: Cytotoxicity against human BT-483 cells after 24 hrs by MTT assay; assay type: functional, cell-based; conditions: BT-483, 24 h
[17] = target: Casein kinase I isoform gamma-2 (Homo sapiens) (UniProt P78368); experiment: Inhibition of wild-type human full length CSNK1G2 (M1 to K415 residues) expressed in bacterial expression system assessed as residual activity at 1 uM by Kinomescan method relative to control
BT-483 [18] = experiment: Effect on Fas protein expression in human BT-483 cells at 5 to 10 uM by Western blot analysis; assay type: functional, cell-based
[19] = target: 3-phosphoinositide-dependent protein kinase 1 (Homo sapiens) (UniProt O15530); experiment: Inhibition of wild-type human full length PDPK1 (M1 to Q556 residues) expressed in bacterial expression system assessed as residual activity at 1 uM by Kinomescan method relative to control
[20] = target: Mitogen-activated protein kinase kinase kinase 4 (Homo sapiens) (UniProt Q9Y6R4); experiment: Inhibition of wild-type human partial length MAP3K4 (G1319 to E1608 residues) expressed in bacterial expression system assessed as residual activity at 1 uM by Kinomescan method relative to control
[21] = target: Ephrin type-A receptor 2 (Homo sapiens) (UniProt P29317); experiment: Inhibition of wild-type human partial length EPHA2 (T593 to V891 residues) expressed in bacterial expression system assessed as residual activity at 1 uM by Kinomescan method relative to control
Chain of Ephrin type-A receptor 2 (Homo sapiens) (P29317 whole entry, the tested form may be a part): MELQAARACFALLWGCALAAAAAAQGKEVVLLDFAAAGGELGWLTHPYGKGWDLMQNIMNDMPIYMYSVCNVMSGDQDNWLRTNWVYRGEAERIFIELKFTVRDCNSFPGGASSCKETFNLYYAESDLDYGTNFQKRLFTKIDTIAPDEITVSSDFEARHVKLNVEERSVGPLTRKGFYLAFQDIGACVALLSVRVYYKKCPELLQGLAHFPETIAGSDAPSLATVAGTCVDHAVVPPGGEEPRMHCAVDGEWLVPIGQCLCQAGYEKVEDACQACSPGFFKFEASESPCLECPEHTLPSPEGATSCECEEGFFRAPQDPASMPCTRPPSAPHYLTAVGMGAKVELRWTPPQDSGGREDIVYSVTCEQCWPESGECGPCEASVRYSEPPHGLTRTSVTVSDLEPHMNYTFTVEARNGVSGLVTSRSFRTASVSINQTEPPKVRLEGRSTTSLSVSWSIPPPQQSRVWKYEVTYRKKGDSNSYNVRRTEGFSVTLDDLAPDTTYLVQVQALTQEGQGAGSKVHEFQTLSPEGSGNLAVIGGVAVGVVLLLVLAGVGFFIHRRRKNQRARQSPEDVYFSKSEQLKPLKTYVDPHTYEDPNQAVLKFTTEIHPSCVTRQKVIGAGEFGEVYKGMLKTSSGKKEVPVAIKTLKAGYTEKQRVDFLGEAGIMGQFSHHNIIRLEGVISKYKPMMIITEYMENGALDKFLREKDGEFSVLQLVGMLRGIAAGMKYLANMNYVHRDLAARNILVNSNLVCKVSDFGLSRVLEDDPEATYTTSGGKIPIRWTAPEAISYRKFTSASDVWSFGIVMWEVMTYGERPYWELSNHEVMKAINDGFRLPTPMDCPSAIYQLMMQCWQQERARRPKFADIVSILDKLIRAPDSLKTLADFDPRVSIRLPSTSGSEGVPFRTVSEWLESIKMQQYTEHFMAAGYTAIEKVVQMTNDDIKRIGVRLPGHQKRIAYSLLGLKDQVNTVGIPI

BT-483 [22] = experiment: Upregulation of Bax protein expression in human BT-483 cells at 5 to 10 uM by Western blot analysis; assay type: functional, cell-based
[23] = target: Dual specificity tyrosine-phosphorylation-regulated kinase 1B (Homo sapiens) (UniProt Q9Y463); experiment: Inhibition of wild-type human full length DYRK1B (M1 to S629 residues) expressed in bacterial expression system assessed as residual activity at 1 uM by Kinomescan method relative to control
Chain of Dual specificity tyrosine-phosphorylation-regulated kinase 1B (Homo sapiens) (Q9Y463 whole entry, looked up, the tested form may be a part): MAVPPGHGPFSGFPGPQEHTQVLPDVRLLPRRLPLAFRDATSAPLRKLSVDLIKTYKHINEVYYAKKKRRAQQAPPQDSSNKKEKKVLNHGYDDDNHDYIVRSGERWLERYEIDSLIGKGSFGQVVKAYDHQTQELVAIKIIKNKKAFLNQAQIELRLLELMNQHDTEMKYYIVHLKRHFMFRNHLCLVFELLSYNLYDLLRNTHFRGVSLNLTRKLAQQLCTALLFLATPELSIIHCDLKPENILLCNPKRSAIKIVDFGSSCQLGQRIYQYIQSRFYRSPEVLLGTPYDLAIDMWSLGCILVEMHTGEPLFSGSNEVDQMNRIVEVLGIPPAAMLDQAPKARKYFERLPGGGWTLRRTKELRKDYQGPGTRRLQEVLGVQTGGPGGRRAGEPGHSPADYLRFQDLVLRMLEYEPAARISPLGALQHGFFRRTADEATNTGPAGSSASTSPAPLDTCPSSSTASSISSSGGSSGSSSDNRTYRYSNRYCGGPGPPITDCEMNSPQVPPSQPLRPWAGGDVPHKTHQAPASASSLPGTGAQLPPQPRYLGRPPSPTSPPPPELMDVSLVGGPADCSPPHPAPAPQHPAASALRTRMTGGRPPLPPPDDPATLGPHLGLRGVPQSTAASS

BT-483 [24] = experiment: Induction of apoptosis in human BT-483 cells assessed as late apoptotic cells at 5 uM by Annexin V-FITC/propidium iodide staining based flow cytometry (reference value: 0.36%); assay type: functional

With `CCNc1cc(-c2ccc(NC(=O)Nc3cccc(Cl)c3)cc2C(F)(F)F)ccn1` the Activity [1] was 67%, the Activity [2] was 62% and the Activity (BT-483 [3]) was “Non-Toxic”. For the same compound, the Activity [4] was 93%, the Activity [5] was 90% and the Activity (BT-483 [6]) was “Dose-dependent effect”. The Activity [7] was 73%, the Activity (BT-483 [8]) was “inactive” and the Activity [9] was 70%. It also gave an inhibition [10] of 82.7%, an Activity [11] of 95% and an Activity [12] of 89%. For the same compound, the Activity (ZR-75-1) was “Active”, the Activity (BT-483 [13]) was “Active” and the Activity (BT-483 [14]) was “Non-Toxic”. It also gave an Activity [15] of 85%, an IC50 (BT-483 [16]) of 13.3 µM and an Activity [17] of 90%. The Activity (BT-483 [18]) was “inactive”, the Activity [19] was 63% and the Activity [20] was 85%. The Activity [21] was 95%, the Activity (BT-483 [22]) was “Active” and the Activity [23] was 93%. The Activity (BT-483 [24]) was 6.67%.
